Reference: US20070142437A1, “CHEMICAL COMPOUNDS” (priority 2005, published 2007)

Columns and labels:
Type in all cases: biochemical
[1] = biological target: hVEGFR2 (Homo sapiens, UniProt P35968); assay: VEGFR2 HTRF assay; conditions: Inhibition of VEGFR2
Description: The compounds of the present invention elicit important and measurable pharmacological responses. Different compounds from this class are particularly effective at inhibiting VEGFR2 enzymes, as described by the VEGFR2 HTRF assay below, at concentrations, which range from 0.0001 to 1 μM.
The assays were performed in 96-well black plates. 10 nM hVEGFR2 was used to phosphorylate 0.36 μM peptide (Biotin-Ahx-EEEEYFELVAKKKK) in the presence of 75 μM ATP, 5 mM MgCl2, 0.3 mM DTT, 0.1 mg/ml BSA, and 0.1 M HEPES (pH 7.5). 10 μl 0.5 M EDTA was added to reactions as negative controls. The 50 μl kinase reaction with or without inhibitors in 5% DMSO was carried out at room temperature for 45 minutes, then stopped by 40 μl of 125 mM EDTA. 2.4 μg/ml Streptavidin-APC and 0.15 μg/ml Eu-α-pY, in the presence of 0.1 mg/ml BSA, 0.1 M HEPES (pH7.5), were added to a final volume of 140 μl. The plate was incubated for 10 min at room temperature (22° C.) and read on the Victor with the time resolved fluorescence mode by exciting at 340 nm and reading the emission at 665 nm.
• Peptide from Synpep (Dublin, Calif.) • ATP, MgCl2, DTT, BSA, HEPES, EDTA, DMSO from Sigma Streptavidin-APC from Molecular Probes (Eugene, Oreg.) • Eu-α-pY from EG&G Wallac (Gaithersburg, Md.)

[2] = biological target: T1, CDK4 (Homo sapiens, UniProt P11802); assay: CDK4 substrate phosphorylation assay (Rb protein, 33P-ATP); conditions: Inhibition of CDK4
T1 construct: made in house
T1 sequence (P11802 whole entry, species assumed): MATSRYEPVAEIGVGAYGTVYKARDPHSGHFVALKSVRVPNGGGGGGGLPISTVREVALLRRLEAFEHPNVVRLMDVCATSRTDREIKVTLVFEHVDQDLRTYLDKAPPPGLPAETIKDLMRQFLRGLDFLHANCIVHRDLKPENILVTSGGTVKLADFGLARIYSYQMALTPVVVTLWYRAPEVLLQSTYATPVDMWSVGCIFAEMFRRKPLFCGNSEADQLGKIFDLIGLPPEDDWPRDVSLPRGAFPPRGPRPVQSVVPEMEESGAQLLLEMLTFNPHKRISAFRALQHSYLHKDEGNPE
T1 sequence (P24385 whole entry partner, species assumed): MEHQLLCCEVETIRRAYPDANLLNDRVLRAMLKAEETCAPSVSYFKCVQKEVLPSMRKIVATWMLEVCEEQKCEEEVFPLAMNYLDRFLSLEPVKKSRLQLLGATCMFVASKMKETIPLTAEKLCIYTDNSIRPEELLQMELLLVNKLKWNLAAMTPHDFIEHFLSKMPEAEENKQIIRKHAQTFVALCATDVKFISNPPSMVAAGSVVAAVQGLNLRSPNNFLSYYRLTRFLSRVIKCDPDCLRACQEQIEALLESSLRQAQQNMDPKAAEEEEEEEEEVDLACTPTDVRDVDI
Description: (§1) The compounds of the present invention have valuable pharmacologic properties. Different compounds from this class are particularly effective at inhibiting CDK2 and/or CDK4 enzymes at concentrations, which range from 0.0001 to 1 μM and additionally show specificity relative to other kinases. Substrate phosphorylation assays were carried out as follows:
Cyclin D1 and cyclin-dependent kinase 4 were expressed utilizing a baculovirus expression system. The catalytic activity of CDK4 protein was assayed by measuring the phosphorylation of Rb protein. A truncated Rb protein (residues 773-928 of the native retinoblastoma protein, fused to glutathione S-transferase to facilitate purification) was used as the phosphoryl acceptor. The assay conditions were 100 mM HEPES (N-[2-hydroxyethyl]piperzine-N′-[2-ethanesulfonic acid]), pH 7.5, 0.5 μM GST-Rb protein, 1 μCi/mL [^33P]-ATP (1 nM-20 μM), 5-20 mM MgCl2, 2.5 mM EDTA, 1 mM dithiotheitol, 0.2 mg/mL bovine serum albumin, 2% (v/v) dimethyl sulfoxide (DMSO), CDK4 enzyme (5-50 nM) in a final volume of 50 μL. Reactions were incubated for time periods of 10-60 min at 30° C. and terminated by the addition of 50 μL quench (1 mM ATP/100 mM EDTA, pH 7.0). Detection of protein phosphorylation was accomplished by scintillation counting following collection of protein in 96 well plates coated with Glutathione or trapping of protein onto phosphocellulose filters. Counts detected by these methodologies minus the appropriate background were assumed to be proportional to the reaction initial rates. IC50 values were determined by measuring enzyme activity in the presence of different inhibitor concentrations (0.1 nM to 50 μM). IC50s were determined by a least squares fit to the equation CPM=Vmax*(1−([I]/(K+[I])))+nsb, or pIC50s were determined by a fit to the equation CPM=nsb+(Vmax−nsb)/(1+(x/10^x−pIC50)), where nsb are the background counts.

[3] = biological target: T2, CDK2 (Homo sapiens, UniProt P24941); assay: CDK2 substrate phosphorylation assay (biotinylated peptide, 32P-ATP); conditions: Inhibition of CDK2
T2 construct: made in house
Description: as §1
Cyclin dependent protein kinase 2 assays utilized the peptide Biotin-aminohexyl-ARRPMSPKKKA-NH2 as phosphoryl group acceptor. CDK2 was expressed utilizing a baculovirus expression system and was partially purified to comprise 20-80% of total protein, with no detectable competing reactions present. Typically, assays were performed by incubating enzyme (0.2-10 nM), with and without inhibitor, peptide substrate (1-10 nM), [g-^32P]ATP (1-20 nM), and 10-20 mM Mg^2+ for periods of time generally within the range 10-120 minutes. Reactions were terminated with 0.2-2 volumes of either 20% acetic acid or 50-100 mM EDTA buffered to pH 7 (substrate consumption <20%). The buffer employed in enzyme assay was 100 mM HEPES pH 7.5 containing 0.1 mg/mL BSA and 5% DMSO. Inhibitors were diluted in 100% DMSO prior to addition into the assay. Detection of peptide phosphorylation was accomplished by scintillation counting following either collection of peptide onto phosphocellulose filters (for reactions stopped with acetic acid), collection of peptide in wells of 96 well plates coated with Streptavidin (Pierce) (reactions were stopped with EDTA), or addition of Avidin coated Scintillant impregnated beads (Scintillation Proximity Assays from Amersham, reactions were stopped with EDTA). Counts detected by any of these methodologies minus the appropriate background (assays with additional 40 mM EDTA or lacking peptide substrate) were assumed to be proportional to the reaction initial rates, and IC50s were determined by a least squares fit to the equation CPM=Vmax*(1−([I]/(K+[I])))+nsb, or −pIC50s were determined by a fit to the equation CPM=nsb+(Vmax−nsb)/(1+(x/10^x−pIC50)), where nsb are the background counts. Filters are washed four times with 75 mM phosphoric acid. Radioactivity was determined by liquid scintillation counting.

hVEGFR2, sequence (P35968 20-1356): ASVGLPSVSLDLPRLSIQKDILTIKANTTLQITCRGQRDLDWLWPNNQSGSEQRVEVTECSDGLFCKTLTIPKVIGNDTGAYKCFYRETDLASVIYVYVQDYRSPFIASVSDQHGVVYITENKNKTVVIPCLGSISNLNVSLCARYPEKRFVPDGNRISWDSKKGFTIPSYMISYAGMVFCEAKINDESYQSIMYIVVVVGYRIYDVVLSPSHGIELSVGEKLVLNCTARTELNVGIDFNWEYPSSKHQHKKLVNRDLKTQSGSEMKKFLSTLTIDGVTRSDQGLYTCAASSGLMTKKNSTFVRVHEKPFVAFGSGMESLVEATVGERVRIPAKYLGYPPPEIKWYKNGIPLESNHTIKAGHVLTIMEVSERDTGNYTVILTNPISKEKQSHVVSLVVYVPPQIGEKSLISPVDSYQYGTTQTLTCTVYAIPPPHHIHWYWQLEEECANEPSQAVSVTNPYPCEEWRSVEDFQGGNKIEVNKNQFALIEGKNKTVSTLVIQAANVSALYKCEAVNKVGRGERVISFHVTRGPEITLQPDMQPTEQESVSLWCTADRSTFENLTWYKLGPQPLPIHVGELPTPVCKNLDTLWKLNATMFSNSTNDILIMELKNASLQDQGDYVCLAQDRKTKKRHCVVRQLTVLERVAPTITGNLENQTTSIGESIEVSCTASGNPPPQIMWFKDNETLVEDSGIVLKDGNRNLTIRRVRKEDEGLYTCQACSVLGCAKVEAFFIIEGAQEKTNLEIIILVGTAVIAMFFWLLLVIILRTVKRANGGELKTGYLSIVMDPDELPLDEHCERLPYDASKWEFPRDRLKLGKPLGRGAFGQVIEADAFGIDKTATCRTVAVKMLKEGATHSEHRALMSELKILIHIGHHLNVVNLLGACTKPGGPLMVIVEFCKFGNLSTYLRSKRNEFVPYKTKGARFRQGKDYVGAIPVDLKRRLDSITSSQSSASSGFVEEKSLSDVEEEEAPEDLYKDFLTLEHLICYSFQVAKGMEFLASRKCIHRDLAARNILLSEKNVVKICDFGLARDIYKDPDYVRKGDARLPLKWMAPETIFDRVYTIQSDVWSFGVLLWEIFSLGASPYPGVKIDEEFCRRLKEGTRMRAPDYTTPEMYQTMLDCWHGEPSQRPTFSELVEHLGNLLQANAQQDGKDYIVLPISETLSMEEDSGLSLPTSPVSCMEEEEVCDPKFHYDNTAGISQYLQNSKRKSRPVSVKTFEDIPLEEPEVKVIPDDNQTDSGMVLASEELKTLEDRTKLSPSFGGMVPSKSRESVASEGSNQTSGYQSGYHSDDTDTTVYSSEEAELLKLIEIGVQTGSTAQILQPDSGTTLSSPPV

SMILES | IC50 [1] [nM] | IC50 [2] [nM] | IC50 [3] [nM]
CCOc1cccc(-c2cnc(Nc3ccc(N4CCN(C)CC4)cc3)o2)c1 [Example 5, 5-(3-Ethoxyphenyl)-N-[4-(4-methylpiperazin-1-yl)phenyl]-1,3-oxazol-2-amine] | < 1000 | < 100 | < 1000
CCN(CC)CCNC(=O)c1ccc(Nc2ncc(-c3cccc(OC)c3)o2)cc1 [Example 46, N-[2-(diethylamino)ethyl]-4-{[5-(3-methoxyphenyl)-1,3-oxazol-2-yl]amino}benzamide] | < 1000 | < 1000 | < 1000
COc1cccc(-c2cnc(Nc3ccc(N4CCN(C)CC4)nc3)o2)c1 [Example 31, N-[5-(3-methoxyphenyl)-1,3-oxazol-2-yl]-6-(4-methylpiperazin-1-yl)pyridin-3-amine] | < 1000 | < 1000 | < 1000
c1cc(OC2CCCC2)cc(-c2cnc(Nc3ccc(N4CCSCC4)cc3)o2)c1 [Example 30, 5-[3-(Cyclopentyloxy)phenyl]-N-(4-thiomorpholin-4-ylphenyl)-1,3-oxazol-2-amine] | < 1000 | < 1000 | < 10000
COc1cccc(-c2cnc(Nc3ccc(CN4CCOCC4)cc3)o2)c1 [Example 11, 5-(3-Methoxyphenyl)-N-[4-(morpholin-4-ylmethyl)phenyl]-1,3-oxazol-2-amine] | < 1000 | < 1000 | < 1000
COc1cccc(-c2cnc(Nc3ccc(CN(C)C)cc3)o2)c1 [Example 40, N-{4-[(dimethylamino)methyl]phenyl}-5-(3-methoxyphenyl)-1,3-oxazol-2-amine] | < 1000 | < 100 | < 1000
COc1cccc(-c2cnc(Nc3ccc(N4CCOCC4)cc3)o2)c1 [Example 9, 5-(3-Methoxyphenyl)-N-(4-morpholin-4-ylphenyl)-1,3-oxazol-2-amine] | < 1000 | < 1000 | < 1000
CCCOc1cccc(-c2cnc(Nc3ccc(N4CCN(C)CC4)cc3)o2)c1 [Example 17, N-[4-(4-methylpiperazin-1-yl)phenyl]-5-(3-propoxyphenyl)-1,3-oxazol-2-amine] | < 100 | < 100 | < 1000
Oc1cccc(-c2cnc(Nc3ccccc3)o2)c1 [Example 2, 3-(2-anilino-1,3-oxazol-5-yl)phenol] | < 1000 | < 1000 | < 1000
COc1cccc(-c2cnc(Nc3ccc(N4CCN(C)CC4)c(C)c3)o2)c1 [Example 22, 5-(3-Methoxyphenyl)-N-[3-methyl-4-(4-methylpiperazin-1-yl)phenyl]-1,3-oxazol-2-amine] | < 100 | < 100 | < 1000
CN1CCN(c2ccc(Nc3ncc(-c4cccc(OC5CCCC5)c4)o3)cn2)CC1 [Example 34, N-{5-[3-(cyclopentyloxy)phenyl]-1,3-oxazol-2-yl}-6-(4-methylpiperazin-1-yl)pyridin-3-amine] | < 1000 | < 100 | < 100
CN1CCN(c2ccc(Nc3ncc(-c4cccc(OCc5ccccc5)c4)o3)cc2)CC1 [Example 15, 5-[3-(Benzyloxy)phenyl]-N-[4-(4-methylpiperazin-1-yl)phenyl]-1,3-oxazol-2-amine] | < 1000 | < 100 | < 1000
COc1cccc(-c2cnc(Nc3ccc(N4CCN(C)CC4)c(F)c3)o2)c1 [Example 20, N-[3-fluoro-4-(4-methylpiperazin-1-yl)phenyl]-5-(3-methoxyphenyl)-1,3-oxazol-2-amine] | < 1000 | < 100 | < 1000
COc1cccc(-c2cnc(Nc3ccc(CN4CCN(C)CC4)cc3)o2)c1 [Example 38, 5-(3-methoxyphenyl)-N-{4-[(4-methylpiperazin-1-yl)methyl]phenyl}-1,3-oxazol-2-amine] | < 1000 | < 1000 | < 1000
CN1CCN(c2ccc(Nc3ncc(-c4cccc(OC5CCCC5)c4)o3)cc2Cl)CC1 [Example 26, N-[3-Chloro-4-(4-methylpiperazin-1-yl)phenyl]-5-[3-(cyclopentyloxy)phenyl]-1,3-oxazol-2-amine] | < 1000 | < 100 | < 100
c1ccc(-c2cnc(Nc3ccc(CN4CCOCC4)cc3)o2)cc1 [Example 8, N-[4-(Morpholin-4-ylmethyl)phenyl]-5-phenyl-1,3-oxazol-2-amine] | < 1000 | < 1000 | < 10000
CCN1CCN(c2ccc(Nc3ncc(-c4cccc(OC)c4)o3)cc2)CC1 [Example 6, N-[4-(4-Ethylpiperazin-1-yl)phenyl]-5-(3-methoxyphenyl)-1,3-oxazol-2-amine] | < 1000 | < 100 | < 1000
Cc1cc(Nc2ncc(-c3cccc(OC4CCCC4)c3)o2)cnc1N1CCN(C)CC1 [Example 37, N-{5-[3-(cyclopentyloxy)phenyl]-1,3-oxazol-2-yl}-5-methyl-6-(4-methylpiperazin-1-yl)pyridin-3-amine] | < 1000 | < 100 | < 1000
COc1cccc(-c2cnc(Nc3ccc(N4CCN(C)CC4)c(Cl)c3)o2)c1 [Example 19, N-[3-chloro-4-(4-methylpiperazin-1-yl)phenyl]-5-(3-methoxyphenyl)-1,3-oxazol-2-amine] | < 1000 | < 100 | < 1000
COc1cccc(-c2cnc(Nc3ccc(N4CCN(C)CC4)cc3C)o2)c1 [Example 24, 5-(3-methoxyphenyl)-N-[2-methyl-4-(4-methylpiperazin-1-yl)phenyl]-1,3-oxazol-2-amine] | < 1000 | < 1000 | < 10000
COc1cccc(-c2cnc(Nc3ccccc3)o2)c1 [Example 1, 5-(3-methoxyphenyl)-N-phenyl-1,3-oxazol-2-amine] | < 10000 | < 1000 | < 1000
COc1cccc(-c2cnc(Nc3ccc(N4CC(C)NC(C)C4)cc3)o2)c1 (stereo not drawn) [Example 23, N-[4-(3,5-dimethylpiperazin-1-yl)phenyl]-5-(3-methoxyphenyl)-1,3-oxazol-2-amine] | < 1000 | < 1000 | < 100
COc1cccc(-c2cnc(Nc3ccc(N4CCN(C)CC4)cc3)o2)c1 [Example 4, 5-(3-Methoxyphenyl)-N-[4-(4-methylpiperazin-1-yl)phenyl]-1,3-oxazol-2-amine] | < 1000 | < 100 | < 1000
